This is an account of results in ChEMBL document CHEMBL1158429, “Selective cytochrome P450 3A4 inhibitory activity of Amaryllidaceae alkaloids” (Bioorg Med Chem Lett, 2009).

In this series the target is Cytochrome P450 3A4 (Homo sapiens, UniProt P08684). The series can be described thus: Inhibition of human CYP3A4 assessed as biotransformation of 7-benzyloxyquinoline. The class given is ADME.
Chain of Cytochrome P450 3A4 (P08684 whole entry): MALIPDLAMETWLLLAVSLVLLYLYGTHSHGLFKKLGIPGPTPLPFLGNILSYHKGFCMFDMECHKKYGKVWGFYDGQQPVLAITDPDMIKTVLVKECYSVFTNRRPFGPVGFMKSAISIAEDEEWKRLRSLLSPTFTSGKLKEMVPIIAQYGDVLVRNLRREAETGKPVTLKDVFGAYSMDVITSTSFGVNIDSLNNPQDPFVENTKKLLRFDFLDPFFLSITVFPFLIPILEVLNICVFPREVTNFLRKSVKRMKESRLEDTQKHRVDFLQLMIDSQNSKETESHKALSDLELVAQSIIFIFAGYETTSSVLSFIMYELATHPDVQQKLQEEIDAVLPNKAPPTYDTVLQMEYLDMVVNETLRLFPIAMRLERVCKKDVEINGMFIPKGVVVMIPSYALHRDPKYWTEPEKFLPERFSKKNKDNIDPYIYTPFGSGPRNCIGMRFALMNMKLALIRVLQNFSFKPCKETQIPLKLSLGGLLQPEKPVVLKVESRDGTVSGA

For `CC(C)(C)[Si](C)(C)O[C@H]1C=C2CCN3Cc4cc5c(cc4[C@H]([C@@H]1O)[C@@H]23)OCO5`, for the setting “read-out: Ki”, the Ki was 260 nM.

On to `O[C@H]1[C@H]2c3cc4c(cc3CN3CCC(=C[C@@H]1O)[C@H]23)OCO4` [LYCORINE], for which the Ki entry is recorded as “Not Active”.

As for `O=C1N[C@@H]2C(=C[C@H](O)[C@@H](O)[C@H]2O)c2cc3c(c(O)c21)OCO3` [NARCICLASINE], the Ki (read-out: Ki) stood at 630 nM.

Regarding `CC(=O)O[C@H]1[C@H]2c3cc4c(cc3CN3CCC(=C[C@@H]1OC(C)=O)[C@H]23)OCO4`, where the note is “read-out: Ki”, the Ki was 11000 nM.

Turning to `O=C1N[C@H]2[C@H](O)[C@H](O)[C@@H](O)[C@H](O)[C@@H]2c2cc3c(c(O)c21)OCO3` [PANCRATISTATIN], the Ki entry is “Not Active”.

Turning to `CC(=O)O[C@H]1[C@H]2c3cc4c(cc3CN3CCC(=C[C@@H]1O[Si](C)(C)C(C)(C)C)[C@H]23)OCO4`, the Ki by setting is: (read-out: Ki) 210 nM; (read-out: pKi (converted)) 158 nM.

Consider `CC(=O)O[C@H]1[C@H]2c3cc4c(cc3CN3CCC(=C[C@@H]1O)[C@H]23)OCO4`, for which the Ki (read-out: Ki) came out at 7600 nM.
